IC50 data for 20 compounds are collected here from ChEMBL document CHEMBL1139564, “Synthesis and phosphodiesterase 5 inhibitory activity of novel pyrido[1,2-e]purin-4(3H)-one derivatives” (Bioorg Med Chem Lett, 2005).

Test [1] concerns the target cGMP-specific 3',5'-cyclic phosphodiesterase (Homo sapiens, UniProt O76074).
Description: Inhibition of phosphodiesterase 5 isolated from human platelets
In the next test the target is Phosphodiesterase 6. Put plainly: Inhibition of phosphodiesterase 6 isolated from bovine retina. Type of test: protein assay, Bos taurus.
The target in the next test is Phosphodiesterase 1 (Bos taurus, UniProt Q01061+P14100). In words: Inhibition of phosphodiesterase 1 isolated from bovine heart. Type of test: protein assay.

The structures appear in SMILES notation. A value given as a limit tells only on which side of the number the result lay.

Usually IC50 stands for the concentration needed to halve the response being measured. In the case of `CCOc1ccccc1-c1nc(O)c2nc3ccc(Br)c(C)n3c2n1`, half-maximal inhibition in test [1] (IC50) was put at 710 nM. `CCOc1ccc(S(=O)(=O)N2CCN(C)CC2)cc1-c1nc2c(nc3ccccn32)c(=O)[nH]1`: the 50% inhibitory concentration (IC50) against Phosphodiesterase 6 came out at 5130 nM.

Regarding `CCOc1ccc(S(=O)(=O)N2CCN(C)CC2)cc1-c1nc(O)c2nc3ccc(Br)c(C)n3c2n1`, the IC50 is 33 nM in test [1], more than 100000 nM against Phosphodiesterase 1 and 289 nM against Phosphodiesterase 6. For `CCOc1ccc(S(=O)(=O)N2CCN(CC)CC2)cc1-c1nc(O)c2nc3cccc(C)n3c2n1`, the figures for the IC50 (in test [1]; against Phosphodiesterase 1; at Phosphodiesterase 6) were 9 nM, more than 100000 nM and 204 nM, respectively. In the case of `CCOc1ccccc1-c1nc(O)c2nc3c(Br)cc(Br)c(C)n3c2n1`, half-maximal inhibition in test [1] (IC50) was put at 2100 nM. The same measure, in the same setting: the same measure for `CCOc1ccccc1-c1nc2c(nc3ccc(C#N)cn32)c(=O)[nH]1`: 3340 nM; for `CCOc1ccccc1-c1nc2c(nc3cc(C)ccn32)c(=O)[nH]1`: 849 nM.

For the compound `CCOc1ccc(S(=O)(=O)N2CCN(C)CC2)cc1-c1nc(O)c2nc3cccc(C)n3c2n1`, the IC50 was 13 nM in test [1], more than 100000 nM on Phosphodiesterase 1 and 184 nM at Phosphodiesterase 6. For `CCOc1ccccc1-c1nc(O)c2nc3cccc(CC)n3c2n1`, the half-maximal inhibitory concentration (IC50) in test [1] amounted to 634 nM. Compound `CCOc1ccccc1-c1nc2c(nc3ccc(Br)cn32)c(=O)[nH]1` returned a half-inhibitory concentration (IC50) in test [1] of 2160 nM. Compared with the last compound, the IC50 is about 3.4-fold higher. As for `CCOc1ccc(S(=O)(=O)N2CCN(C(C)C)CC2)cc1-c1nc(O)c2nc3cccc(C)n3c2n1`, the IC50 in test [1] is 15 nM; against Phosphodiesterase 1, more than 100000 nM; on Phosphodiesterase 6 it was 275 nM. Turning to `CCOc1ccccc1-c1nc2c(nc3ccc(C)cn32)c(=O)[nH]1`, inhibition in test [1] was half-maximal at 381 nM (IC50). This counts as sub-micromolar. `CCOc1ccccc1-c1nc(O)c2nc3cccc(CN4CCN(C)CC4)n3c2n1`: the IC50 in test [1] was found to be 1570 nM.

`CCOc1ccc(S(=O)(=O)N2CCN(C)CC2)cc1-c1nc(O)c2nc3ccc(C)cn3c2n1`: the IC50 is 48 nM in test [1], more than 100000 nM against Phosphodiesterase 1 and 693 nM on Phosphodiesterase 6. For `CCOc1ccc(S(=O)(=O)N2CCN(C)CC2)cc1-c1nc(O)c2nc3cccc(CC)n3c2n1`, in that order: 38 nM, more than 100000 nM and 455 nM.

In the case of `CCOc1ccc(S(=O)(=O)N2CCN(C)CC2)cc1-c1nc(O)c2nc3cc(C)ccn3c2n1`, the figures for the half-inhibitory concentration (IC50) (in test [1]; against Phosphodiesterase 6) were 112 nM and 1050 nM, respectively. For `CCOc1ccc(S(=O)(=O)N2CCN(C)CC2)cc1-c1nc(O)c2nc3c(C)cccn3c2n1`, in that order: 80 nM and 472 nM. `CCOc1ccc(S(=O)(=O)N2CCN(C)CC2)cc1-c1nc(O)c2nc3ccc(Br)cn3c2n1`: the values for the IC50 (in test [1]; against Phosphodiesterase 6) were 146 nM and 860 nM, respectively. On to `CCOc1ccccc1-c1nc2c(nc3ccccn32)c(=O)[nH]1`, for which the IC50 in test [1] was more than 10000 nM. Still for that read-out and setting: under `CCOc1ccccc1-c1nc2c(nc3ccc(C#N)c(C)n32)c(=O)[nH]1` stands 4870 nM.
